Results as given in US20230331803A1, “CO-AGONISTS OF THE GLP-1 AND AMYLIN RECEPTORS” (priority 2020, published 2023).
Like-named read-outs stand apart in the source and are kept apart here. Starred links: 1 amine or outer side, 2 acyl side, 3 side chain; linkers in the order of their positions; H or OH if unused. Non-standard residues stand in square brackets, D forms with d. Groups on a side chain read outwards from the residue. *: point of attachment. C20 diacid = O=C(O)CCCCCCCCCCCCCCCCCCC(=O)*; C18 diacid = O=C(O)CCCCCCCCCCCCCCCCC(=O)*; γGlu = O=C(O)[C@H](CCC(=O)[*:2])N[*:1]; Desaminohistidyl = O=C(CCc1c[nH]cn1)*; AEEA = NCCOCCOCC(=O)O; Aib = CC(C)(N)C(=O)O

Columns and labels:
[1] = biological target: T1, human GLP-1 receptor (Homo sapiens, UniProt P43220); assay: Human GLP-1 receptor in vitro potency assay (CRE-luciferase reporter, BHK cells); format: cell-based
T1 construct: expressed in transfected cells; host or cells: BHK (Baby Hamster Kidney) cells, clone BHK 467-12A KZ-10, stably transfected, with CRE-luciferase reporter
Experimental: It is thus possible to measure GLP-1 receptor activity using a CRE-luciferase reporter gene introduced into Baby Hamster Kidney (BHK) cells co-expressing the GLP-1 receptor.
Cells were aliquoted and stored at -180° C. until use.
Plates were sealed and incubated at room temperature with gentle shaking for 30 minutes while protected from light. Luminescence was detected on a luminescence plate reader e.g. a Synergy 2 (BioTek).

[2] = biological target: T2, human amylin receptor (hAmyR3) (Homo sapiens, UniProt O60896+P30988); assay: Human amylin receptor in vitro potency assay (CRE-luciferase reporter, BHK cells); format: cell-based;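 further: BHK cells expressing human calcitonin receptor plus RAMP3 (amylin-3 receptor) with a CRE-luciferase reporter, agonist activity read as luminescence from cAMP-driven transcription, 7-point serial dilutions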
T2 construct: host or cells: BHK cells (Hollex-1 line: human calcitonin receptor (a) + CRE-Luc), further transfected with human RAMP3

[3] = Table 4a, BHK cells expressing human GLP-1R, CRE-Luc, 3 hours, read-out: Human GLP-1R potency [EC50 (pM)]
[4] = Table 4a, BHK hAmyR3/CRE-Luc cells, 3 hours, read-out: Human AmyR3 potency [EC50 (pM)]

T2 sequence (P30988 25-474): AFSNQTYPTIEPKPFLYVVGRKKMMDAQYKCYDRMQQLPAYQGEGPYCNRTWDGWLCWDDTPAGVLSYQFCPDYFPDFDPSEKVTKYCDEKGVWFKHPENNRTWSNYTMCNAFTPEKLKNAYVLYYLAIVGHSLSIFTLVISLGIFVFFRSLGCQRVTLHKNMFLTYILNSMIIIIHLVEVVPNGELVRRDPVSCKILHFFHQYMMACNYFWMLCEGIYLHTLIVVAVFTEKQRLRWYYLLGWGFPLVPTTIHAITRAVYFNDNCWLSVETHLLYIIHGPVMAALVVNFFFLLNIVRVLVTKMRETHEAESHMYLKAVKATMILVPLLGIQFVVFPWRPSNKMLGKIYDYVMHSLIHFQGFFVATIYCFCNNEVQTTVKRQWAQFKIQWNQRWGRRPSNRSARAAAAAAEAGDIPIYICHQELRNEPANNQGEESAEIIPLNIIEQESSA
T2 sequence (O60896 24-148): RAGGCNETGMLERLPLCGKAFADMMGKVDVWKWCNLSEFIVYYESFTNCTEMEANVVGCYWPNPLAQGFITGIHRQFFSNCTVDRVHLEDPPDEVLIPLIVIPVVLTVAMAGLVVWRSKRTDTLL
T1 sequence (P43220 24-463): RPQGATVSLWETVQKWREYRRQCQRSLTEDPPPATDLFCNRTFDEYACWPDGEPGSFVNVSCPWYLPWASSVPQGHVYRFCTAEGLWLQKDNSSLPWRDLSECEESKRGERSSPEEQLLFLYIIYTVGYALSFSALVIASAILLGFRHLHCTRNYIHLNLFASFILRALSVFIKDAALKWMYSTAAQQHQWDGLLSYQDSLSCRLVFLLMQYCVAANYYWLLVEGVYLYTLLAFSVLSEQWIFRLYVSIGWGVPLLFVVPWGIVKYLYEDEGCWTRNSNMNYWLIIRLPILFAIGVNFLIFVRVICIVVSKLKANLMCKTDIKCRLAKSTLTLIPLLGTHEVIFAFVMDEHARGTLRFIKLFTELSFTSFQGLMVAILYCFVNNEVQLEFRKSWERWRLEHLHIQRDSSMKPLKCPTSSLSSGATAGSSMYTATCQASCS

| Molecule | EC50 [1, 3] | EC50 [2, 4] | also measured |
| --- | --- | --- | --- |
| CC[C@H](C)[C@H](NC(=O)[C@H](Cc1ccccc1)NC(=O)[C@H](CCCCNC(=O)COCCOCCNC(=O)COCCOCCNC(=O)CC[C@H](NC(=O)CCCCCCCCCCCCCCC(=O)O)C(=O)O)NC(=O)[C@H](CCCNC(=N)N)NC(=O)[C@H](C)NC(=O)[C@H](C)NC(=O)[C@H](CCC(N)=O)NC(=O)[C@H](CCC(=O)O)NC(=O)[C@H](CCC(=O)O)NC(=O)[C@H](CC(C)C)NC(=O)[C@H](Cc1ccc(O)cc1)NC(=O)[C@H](CO)NC(=O)[C@H](CO)NC(=O)[C@@H](NC(=O)[C@H](CC(=O)O)NC(=O)[C@H](CO)NC(=O)[C@@H](NC(=O)[C@H](Cc1ccccc1)NC(=O)[C@@H](NC(=O)CNC(=O)[C@H](CCC(=O)O)NC(=O)C(C)(C)NC(=O)[C@@H](N)Cc1c[nH]cn1)[C@@H](C)O)[C@@H](C)O)C(C)C)C(=O)N[C@@H](CCC(=O)O)C(=O)N[C@@H](Cc1c[nH]c2ccccc12)C(=O)N[C@@H](CC(C)C)C(=O)N[C@H](C(=O)N[C@@H](CCCNC(=N)N)C(=O)NCC(=O)N[C@@H](CCCCNC(=O)COCCOCCNC(=O)COCCOCCNC(=O)CC[C@H](NC(=O)CCCCCCCCCCCCCCC(=O)O)C(=O)O)C(=O)NCC(=O)N[C@@H](CCC(=O)O)C(=O)NCC(=O)N[C@@H](CCC(N)=O)C(=O)N[C@@H](CCC(=O)O)C(=O)N1CCC[C@H]1C(=O)NCC(=O)NCC(=O)N[C@@H](C)C(=O)N[C@@H](CO)C(=O)N[C@@H](CCC(=O)O)C(=O)N[C@@H](CC(C)C)C(=O)N[C@@H](CO)C(=O)N[C@H](C(=O)N[C@@H](C)C(=O)N[C@@H](C)C(=O)N[C@@H](CC(C)C)C(=O)NCC(=O)N[C@@H](CCCNC(=N)N)C(=O)N[C@@H](CC(C)C)C(=O)N[C@@H](CO)C(=O)N[C@@H](C)C(=O)N[C@@H](CCC(=O)O)C(=O)N[C@@H](CC(C)C)C(=O)N[C@@H](Cc1c[nH]cn1)C(=O)N[C@@H](CCC(=O)O)C(=O)N[C@@H](CC(C)C)C(=O)N[C@@H](C)C(=O)N[C@H](C(=O)N[C@@H](CC(C)C)C(=O)N1CCC[C@H]1C(=O)N[C@@H](CCCNC(=N)N)C(=O)N[C@H](C(=O)N[C@@H](CCC(=O)O)C(=O)N[C@H](C(=O)NCC(=O)N[C@@H](CO)C(=O)NCC(=O)N[C@@H](CO)C(=O)N1CCC[C@H]1C(N)=O)[C@@H](C)O)[C@@H](C)O)[C@@H](C)O)[C@@H](C)O)C(C)C [Compound 0105] | 1.1 pM | 30.8 pM |  |
| CC[C@H](C)[C@H](NC(=O)[C@H](Cc1ccccc1)NC(=O)[C@H](CCC(=O)O)NC(=O)[C@H](CCCNC(=N)N)NC(=O)[C@H](C)NC(=O)[C@H](C)NC(=O)[C@H](CCC(N)=O)NC(=O)[C@H](CCC(=O)O)NC(=O)[C@H](CCC(=O)O)NC(=O)[C@H](CC(C)C)NC(=O)[C@H](Cc1ccc(O)cc1)NC(=O)[C@H](CO)NC(=O)[C@H](CO)NC(=O)[C@@H](NC(=O)[C@H](CC(=O)O)NC(=O)[C@H](CO)NC(=O)[C@@H](NC(=O)[C@H](Cc1ccccc1)NC(=O)[C@@H](NC(=O)CNC(=O)[C@H](CCC(=O)O)NC(=O)C(C)(C)NC(=O)CCc1c[nH]cn1)[C@@H](C)O)[C@@H](C)O)C(C)C)C(=O)N[C@@H](C)C(=O)N[C@@H](Cc1c[nH]c2ccccc12)C(=O)N[C@@H](CC(C)C)C(=O)N[C@H](C(=O)N[C@@H](CCCNC(=N)N)C(=O)NCC(=O)N[C@@H](CCCNC(=N)N)C(=O)N[C@@H](CCCCNC(=O)CCCS(=O)(=O)NC(=O)CCCCCCCCCCCCCCCCc1nnn[nH]1)C(=O)N[C@@H](CCC(=O)O)C(=O)N[C@@H](C)C(=O)N[C@@H](CO)C(=O)N[C@@H](CCC(=O)O)C(=O)N[C@@H](CC(C)C)C(=O)N[C@@H](CO)C(=O)N[C@H](C(=O)N[C@@H](C)C(=O)N[C@@H](C)C(=O)N[C@@H](CC(C)C)C(=O)NCC(=O)N[C@@H](CCCNC(=N)N)C(=O)N[C@@H](CC(C)C)C(=O)N[C@@H](CO)C(=O)N[C@@H](C)C(=O)N[C@@H](CCC(=O)O)C(=O)N[C@@H](CC(C)C)C(=O)N[C@@H](Cc1c[nH]cn1)C(=O)N[C@@H](CCC(=O)O)C(=O)N[C@@H](CC(C)C)C(=O)N[C@@H](C)C(=O)N[C@H](C(=O)N[C@@H](CC(C)C)C(=O)N1CCC[C@H]1C(=O)N[C@@H](CCCNC(=N)N)C(=O)N[C@H](C(=O)N[C@@H](CCC(=O)O)C(=O)N[C@H](C(=O)NCC(=O)N[C@@H](CO)C(=O)NCC(=O)N[C@@H](CO)C(=O)N1CCC[C@H]1C(N)=O)[C@@H](C)O)[C@@H](C)O)[C@@H](C)O)[C@@H](C)O)C(C)C [Compound 0124] | 27.9 pM | 24.4 pM |  |
| CC[C@H](C)[C@H](NC(=O)[C@H](Cc1ccccc1)NC(=O)[C@H](CCC(=O)O)NC(=O)[C@H](CCCNC(=N)N)NC(=O)[C@H](C)NC(=O)[C@H](C)NC(=O)[C@H](CCC(N)=O)NC(=O)[C@H](CCC(=O)O)NC(=O)[C@H](CCC(=O)O)NC(=O)[C@H](CC(C)C)NC(=O)[C@H](Cc1ccc(O)cc1)NC(=O)[C@H](CO)NC(=O)[C@H](CO)NC(=O)[C@H](CCCCNC(=O)COCCOCCNC(=O)COCCOCCNC(=O)CC[C@H](NC(=O)[C@H]1CC[C@H](CNC(=O)CCCCCCCCCCCCCCCCCCC(=O)O)CC1)C(=O)O)NC(=O)[C@H](CC(=O)O)NC(=O)[C@H](CO)NC(=O)[C@@H](NC(=O)[C@H](Cc1ccccc1)NC(=O)[C@@H](NC(=O)CNC(=O)[C@H](CCC(=O)O)NC(=O)C(C)(C)NC(=O)[C@@H](N)Cc1c[nH]cn1)[C@@H](C)O)[C@@H](C)O)C(=O)N[C@@H](C)C(=O)N[C@@H](Cc1c[nH]c2ccccc12)C(=O)N[C@@H](CC(C)C)C(=O)N[C@H](C(=O)N[C@@H](CCCNC(=N)N)C(=O)NCC(=O)N[C@@H](CCCNC(=N)N)C(=O)NCC(=O)NCC(=O)NCC(=O)NCC(=O)N[C@@H](CCC(=O)O)C(=O)N[C@@H](C)C(=O)N[C@@H](CO)C(=O)N[C@@H](CCC(=O)O)C(=O)N[C@@H](CC(C)C)C(=O)N[C@@H](CO)C(=O)N[C@H](C(=O)N[C@@H](C)C(=O)N[C@@H](C)C(=O)N[C@@H](CC(C)C)C(=O)NCC(=O)N[C@@H](CCCNC(=N)N)C(=O)N[C@@H](CC(C)C)C(=O)N[C@@H](CO)C(=O)N[C@@H](C)C(=O)N[C@@H](CCC(=O)O)C(=O)N[C@@H](CC(C)C)C(=O)N[C@@H](Cc1c[nH]cn1)C(=O)N[C@@H](CCC(=O)O)C(=O)N[C@@H](CC(C)C)C(=O)N[C@@H](C)C(=O)N[C@H](C(=O)N[C@@H](CC(C)C)C(=O)N1CCC[C@H]1C(=O)N[C@@H](CCCNC(=N)N)C(=O)N[C@H](C(=O)N[C@@H](CCC(=O)O)C(=O)N[C@H](C(=O)NCC(=O)N[C@@H](CO)C(=O)NCC(=O)N[C@@H](CO)C(=O)N1CCC[C@H]1C(N)=O)[C@@H](C)O)[C@@H](C)O)[C@@H](C)O)[C@@H](C)O)C(C)C [Compound 0266] | 6.3 pM | 8.5 pM |  |
| CC[C@H](C)[C@H](NC(=O)[C@H](Cc1ccccc1)NC(=O)[C@H](CCC(=O)O)NC(=O)[C@H](CCCNC(=N)N)NC(=O)[C@H](C)NC(=O)[C@H](C)NC(=O)[C@H](CCC(N)=O)NC(=O)[C@H](CCC(=O)O)NC(=O)[C@H](CCC(=O)O)NC(=O)[C@H](CC(C)C)NC(=O)[C@H](Cc1ccc(O)cc1)NC(=O)[C@H](CO)NC(=O)[C@H](CO)NC(=O)[C@H](CCCCNC(=O)COCCOCCNC(=O)COCCOCCNC(=O)CC[C@H](NC(=O)CCCCCCCCCCCCCCCCC(=O)O)C(=O)O)NC(=O)[C@H](CC(=O)O)NC(=O)[C@H](CO)NC(=O)[C@@H](NC(=O)[C@H](Cc1ccccc1)NC(=O)[C@@H](NC(=O)CNC(=O)[C@H](CCC(=O)O)NC(=O)[C@H](Cc1c[nH]c2ccccc12)NC(=O)[C@@H](N)Cc1c[nH]cn1)[C@@H](C)O)[C@@H](C)O)C(=O)N[C@@H](CCC(=O)O)C(=O)N[C@@H](Cc1c[nH]c2ccccc12)C(=O)N[C@@H](CC(C)C)C(=O)N[C@H](C(=O)N[C@@H](CCCNC(=N)N)C(=O)NCC(=O)N[C@@H](CCCNC(=N)N)C(=O)NCC(=O)N[C@@H](CCC(=O)O)C(=O)N[C@@H](C)C(=O)N[C@@H](CO)C(=O)N[C@@H](CCC(=O)O)C(=O)N[C@@H](CC(C)C)C(=O)N[C@@H](CO)C(=O)N[C@H](C(=O)N[C@@H](C)C(=O)N[C@@H](C)C(=O)N[C@@H](CC(C)C)C(=O)NCC(=O)N[C@@H](CCCNC(=N)N)C(=O)N[C@@H](CC(C)C)C(=O)N[C@@H](CO)C(=O)N[C@@H](C)C(=O)N[C@@H](CCC(=O)O)C(=O)N[C@@H](CC(C)C)C(=O)N[C@@H](Cc1c[nH]cn1)C(=O)N[C@@H](CCC(=O)O)C(=O)N[C@@H](CC(C)C)C(=O)N[C@@H](C)C(=O)N[C@H](C(=O)N[C@@H](CC(C)C)C(=O)N1CCC[C@H]1C(=O)N[C@@H](CCCNC(=N)N)C(=O)N[C@H](C(=O)N[C@@H](CCC(=O)O)C(=O)N[C@H](C(=O)NCC(=O)N[C@@H](CO)C(=O)NCC(=O)N[C@@H](CO)C(=O)N1CCC[C@H]1C(N)=O)[C@@H](C)O)[C@@H](C)O)[C@@H](C)O)[C@@H](C)O)C(C)C [Compound 0273] |  |  | EC50 [1]: 24.9 pM; EC50 [2]: 18 pM |
| Desaminohistidyl-AEGTFTSDVSSYLEEQAAREFIAWLVRGRK([AEEA-AEEA-γGlu-C18 diacid])EASELSTAALGRLSAELHELATLPRTETGSGSP-NH2 [Compound 0051] | 14.3 pM | 19.5 pM |  |
| Desaminohistidyl-[Aib]EGTFTSDVSSYLEEQAAREFIAWLVRGRK([γGlu-C20 diacid])EASELSTAALGRLSAELHELATLPRTETGSGSP-NH2 [Compound 0142] | 88.2 pM | 15.4 pM |  |
| H-Aib-EGTFTSDVSSYLEEQAAREFIAWLVRGR-K([2-[2-[2-[[2-[2-[2-[[(4S)-4-Carboxy-4-(17-Carboxyheptadecanoylamino)Butanoyl]Amino]Ethoxy]Ethoxy]Acetyl]Amino]Ethoxy]Ethoxy]Acetyl])-GGGGEKCNTATCATQRLAEFLRHSSNNFGPILPPTNVGSNTP-amide [Comparator compound 0672, reference compound] |  |  | Ability to agonise the GLP-1 receptor, in words ([1]; Tables 4a-4c): retained their potencies on the GLP-1 receptor; EC50 ([1]; read-out: Human GLP-1 R potency [EC50 (pM)], Table 4b, reference and comparator compounds): 2.2 pM; EC50 ([2]; Table 4b, reference and comparator compounds, read-out: Human AmyR3 potency [EC50 (pM)]): 606 pM; Ability to agonise the amylin receptor, in words ([2]; Tables 4a-4c): impaired potency on the amylin receptor |
